One series deals with NCI-H460. The series is described as follows: Antiproliferative activity against human NCI-H460 cells after 72 hrs. Format: functional, cell-based. The conditions noted are these: NCI-H460, 72 h.
The nature of series [1]: Effect on cell proliferation of Sprague-Dawley rat smooth muscle cells after 72 hrs.
The nature of series [2]: Partition coefficient, log P of the compound. It counts as physicochemical. As to conditions: octanol/water.
A short description of series [3]: Binding affinity to supercoiled pRYG DNA by DNA intercalating assay.

Active and inactive are the calls of the source. The rule behind the calls is not given here.

Usually IC50 stands for the concentration that inhibits the measured activity by half. Higher therefore signals weaker potency. As usually defined, the logP is a log measure of how a compound divides between an organic and an aqueous phase.

As to `CCN(CC)CCN1C(=O)C(c2ccco2)=C(c2cccs2)C1=O`, the IC50 came to 8.7 µM with NCI-H460 and 2.1 µM in series [1]. In series [2], this molecule had a lipophilicity (logP) of 2.1.
The corresponding values for `CCN(CC)CCN1C(=O)c2c(c3sccc3c3ccccc23)C1=O` are 7.1 µM, 13.9 µM and 3.9.
`CCN(CC)CCN1C(=O)c2c(c3c(ccn3C)c3ccoc23)C1=O`: the IC50 with NCI-H460 came out at 8.6 µM; in series [1], 5.3 µM. For the same molecule, in series [2], the logP is 1.7.
For `CCN(CC)CCN1C(=O)C(c2ccco2)=C(c2cccn2C)C1=O`, the half-inhibitory concentration (IC50) with NCI-H460 is > 30 µM. In series [2], this molecule displayed a logP of 0.9.
Regarding `CCN(CC)CCN1C(=O)C(c2cccs2)=C(c2cccn2C)C1=O`, the IC50 was 9 µM in the series on NCI-H460 and 12.1 µM in series [1]. Also, in series [3], the outcome was inactive. The lipophilicity (logP) in series [2] stood at 1.7.
Regarding `CCN(CC)CCN1C(=O)c2c(c3ccccc3c3ccccc23)C1=O`, the values for the IC50 (in the series with NCI-H460; in series [1]) were 0.9 µM and 0.68 µM, respectively. Besides, the logP in series [2] was determined as 4.1.
In the case of `O=C1c2cccc3cccc(c23)C(=O)N1CCNCCCNCCN1C(=O)c2cccc3cccc(c23)C1=O`, the result in series [3] was Active.
As for `CCN(CC)CCN1C(=O)C(c2cccs2)=C(c2cccs2)C1=O`, the values for the IC50 (in the series with NCI-H460; in series [1]) were 8.9 µM and 3.9 µM, respectively. In series [3], the result was inactive. The molecule further returned a lipophilicity (logP) in series [2] of 2.9.
The corresponding values for `CCN(CC)CCN1C(=O)c2c(c3sccc3c3ccsc23)C1=O` are 4.8 µM, 0.53 µM, “inactive” and 3.8.
The corresponding values for `CCN(CC)CCN1C(=O)c2c(c3c(ccn3C)c3ccsc23)C1=O` are 0.84 µM, 0.08 µM, “inactive” and 2.5.
Regarding `CCN(CC)CCN1C(=O)C(c2cc3ccccc3[nH]2)=C(c2cccs2)C1=O`, the IC50 with NCI-H460 is 8.4 µM; in series [1], 5.3 µM. The molecule also had a logP in series [2] of 3.8.
With `CCN(CC)CCN1C(=O)C(c2cccs2)=C(c2c[nH]c3ccccc23)C1=O`, the IC50 was 1.9 µM with NCI-H460 and 1 µM in series [1]. The same molecule displayed a lipophilicity (logP) in series [2] of 3.8.
The corresponding values for `CCN(CC)CCN1C(=O)C(c2c[nH]c3ccccc23)=C(c2cccn2C)C1=O` are 8.5 µM, 3.6 µM and 2.9.
Take `CN(C)CCN1C(=O)c2cccc3cc(N)cc(c23)C1=O` [AMONAFIDE]: the results for the half-maximal inhibitory concentration (IC50) (in the series with NCI-H460; in series [1]) were 7.8 µM and 0.48 µM, respectively. Also, the logP in series [2] is 1.6.
As for `CCN(CC)CCN1C(=O)c2c(c3sccc3c3ccoc23)C1=O`, the 50% inhibitory concentration (IC50) (in the series with NCI-H460; in series [1]) was > 30 µM each time. The same molecule registered a log partition coefficient (logP) in series [2] of 3.

Source of the values: ChEMBL document CHEMBL1144015, “Antiproliferative effects on human tumor cells and rat aortic smooth muscular cells of 2,3-heteroarylmaleimides and heterofused imides” (Bioorg Med Chem, 2008).
